US20220409620A1, “REDUCING IMMUNOGENICITY TO PEGLOTICASE” (Horizon Pharma Rheumatology LLC, priority 2016, published 2022)

System: adult patients with uncontrolled gout
Experiment: Serum uric acid (sUA) levels and sUA responder rate, open-label study of pegloticase with MTX (MIRROR OL)
Type: in vivo, human
Protocol: The primary objective is to estimate the response rate during Month 6 (Weeks 20, 22, and 24), as measured by the sustained normalization of serum uric acid (SUA) to <6 mg/dL for at least 80% of the time during Month 6 in subjects receiving KXX with MTX.
The primary efficacy outcome endpoint is the sustained normalization of SUA to <6 mg/dL for at least 80% of the time during month 6 (weeks 20, 22, and 24) in subjects receiving KXX with MTX. […] Participants who achieve this endpoint were classified as “responders.” Serum uric acid (SUA) responders may also be defined as participants achieving and maintaining SUA <6 mg/dL for at least 80% of the time during Month 6 (Weeks 20, 22, and 24).
Blood samples may be collected prior to each pegloticase infusion for measurement of SUA levels using the Beckman Coulter AU System Uric Acid procedure. Participants were declared “non-responders” if there were SUA measures >6 mg/dL at 2 consecutive study visits beginning with the week 2 visit. […] This assumption and subsequent discontinuation of pegloticase was consistent with the protocol of large phase III randomized controlled trials and the product label. A formal stopping rule was 2 occasions of SUA levels of greater than 6 mg/dL.
Clinical Chemistry—Blood samples were collected prior to each pegloticase infusion for measurement of SUA levels (primary efficacy parameter) using the Beckman Coulter AU System Uric Acid procedure. In this procedure uric acid is converted to hydrogen peroxide. Hydrogen peroxide reacts with reagent to produce a chromophore which is read bichromatically at 660/800 nm. The amount of dye formed is proportional to the uric acid concentration in the sample.
Serum samples for measurement of SUA levels were collected at the Screening Visit, the Week −4 Visit (prior to the first dose of MTX), and the Week −2 Visit during the MTX Run-in Period; within 48 hours prior to each pegloticase infusion and after the end of each pegloticase infusion prior to discharge from the site during the Pegloticase+IMM Period; at the non-infusion Week 52/End of Study/Early Termination Visits and at the Post Treatment 3 and 6 Month Follow-up Visits. Additional serum samples for SUA levels were collected at optional non-infusion (Frequent Sampling) Visits at Weeks 1 and 7. […] Subjects with SUA level >6 mg/dL at 2 consecutive visits beginning at Week 2 visit discontinued treatment, completed the End of Pegloticase Infusion Visit procedures within 2 weeks and continued the subject visits according to the protocol (without treatment).
Efficacy analyses were performed using the modified intention-to-treat (mITT) population, defined as all enrolled subjects who received ≥1 dose of pegloticase. The proportion of Month 6 responders was summarized, along with a 95% confidence interval for the proportion. The proportion of Month 3 and overall (Months 3 and 6 combined) responders was analyzed similarly.
A subject was declared a non-responder if the subject had SUA level >6 mg/dL at 2 consecutive study visits beginning with the Week 2 Visit. In addition, a subject who withdraws from study treatment for any reason after the first dose of pegloticase in the KXX+MTX Period and prior to Month 6 (for the primary endpoint) or Month 3 (for the secondary endpoint) was considered a non-responder if SUA values were not collected at the planned time points.
Patients were administered oral MTX (15 mg/week) and folate (1 mg/day) 4 weeks prior to the first pegloticase infusion (Day 1) and throughout the pegloticase treatment period. Blood was drawn prior to each infusion to measure sUA level, monitor clinical parameters, and examine for ADA development. All patients followed typical IR prophylaxis protocols (fexofenadine one day before and the morning of each infusion and acetaminophen and IV corticosteroid the morning of each infusion).

[1] = Day 1 - Post-Infusion, mITT Population
[2] = Early Termination Visit, mITT Population
[3] = End of Pegloticase Infusions Visit, mITT Population
[4] = Month 6 sUA Non-Responders, Day 1-Post-Infusion, n=3
[5] = Month 6 sUA Non-Responders, Early Termination Visit, n=3
[6] = Month 6 sUA Non-Responders, Week 1, n=2
[7] = Month 6 sUA Non-Responders, Week 2-Post-Infusion, n=3
[8] = Month 6 sUA Non-Responders, Week 2-Pre-Infusion, n=3
[9] = Month 6 sUA Non-Responders, Week 4-Pre-Infusion, n=3
[10] = Month 6 sUA Non-Responders, Week 8-Post-Infusion, n=1
[11] = Month 6 sUA Non-Responders, Week 8-Pre-Infusion, n=1
[12] = Month 6 sUA Non-Responders, Week 10-Pre-Infusion, n=1
[13] = Month 6 sUA Responders, Day 1-Post-Infusion, n=8

pegloticase was tested, and the “Serum Uric Acid, Change from Baseline, Mean (SD)” value (from here on “Serum Uric Acid, Change … (SD)”) [1] was −7.29 (2.254) mg/dL, the “Serum Uric Acid, Change from Baseline, Median” value [1] was -7.30 mg/dL and the “Serum Uric Acid, Observed, Mean (SD)” value [1] was 1.18 (1.417) mg/dL. For the same substance, the “Serum Uric Acid, Observed, Median” value [1] was 0.30 mg/dL, the “sUA <6 mg/dL, n (%)” value [1] was 11 (100%) and the “Serum Uric Acid, Change … (SD)” value [2] was −0.57 (0.635) mg/dL. For the same substance, the “Serum Uric Acid, Change from Baseline, Median” value [2] was -0.20 mg/dL, the “Serum Uric Acid, Observed, Mean (SD)” value [2] was 8.17 (0.058) mg/dL and the “Serum Uric Acid, Observed, Median” value [2] was 8.20 mg/dL. For the same substance, the “sUA <6 mg/dL, n (%)” value (Early Termination Visit, mITT Population, number of subjects (% not given)) was 0, the “Serum Uric Acid, Change … (SD)” value [3] was −8.50 (1.556) mg/dL and the “Serum Uric Acid, Change from Baseline, Median” value [3] was -8.50 mg/dL. The “Serum Uric Acid, Observed, Mean (SD)” value [3] was 0.30 (0.000) mg/dL, the “Serum Uric Acid, Observed, Median” value [3] was 0.30 mg/dL and the “sUA <6 mg/dL, n (%)” value [3] was 2 (100%). The “Serum Uric Acid, Change … (SD)” value [4] was −6.60 (2.848) mg/dL, the “Serum Uric Acid, Change from Baseline, Median” value [4] was -7.20 mg/dL and the “Serum Uric Acid, Observed, Mean (SD)” value [4] was 2.13 (2.438) mg/dL. For the same substance, the “Serum Uric Acid, Observed, Median” value [4] was 1.20 mg/dL, the “sUA <6 mg/dL, n (%)” value [4] was 3 (100%) and the “Serum Uric Acid, Change … (SD)” value [5] was −0.57 (0.635) mg/dL. The “Serum Uric Acid, Change from Baseline, Median” value [5] was -0.20 mg/dL, the “Serum Uric Acid, Observed, Mean (SD)” value [5] was 8.17 (0.058) mg/dL and the “Serum Uric Acid, Observed, Median” value [5] was 8.20 mg/dL. For the same substance, the “sUA <6 mg/dL, n (%)” value [5] was 0%, the “Serum Uric Acid, Change … (SD)” value [6] was −8.10 (0.000) mg/dL and the “Serum Uric Acid, Change from Baseline, Median” value [6] was -8.10 mg/dL. For the same substance, the “Serum Uric Acid, Observed, Mean (SD)” value [6] was 0.30 (0.000) mg/dL, the “Serum Uric Acid, Observed, Median” value [6] was 0.30 mg/dL and the “sUA <6 mg/dL, n (%)” value [6] was 2 (100%). The “Serum Uric Acid, Change … (SD)” value [7] was −8.43 (0.577) mg/dL, the “Serum Uric Acid, Change from Baseline, Median” value [7] was -8.10 mg/dL and the “Serum Uric Acid, Observed, Mean (SD)” value [7] was 0.30 (0.000) mg/dL. For the same substance, the “Serum Uric Acid, Observed, Median” value [7] was 0.30 mg/dL, the “sUA <6 mg/dL, n (%)” value [7] was 3 (100%) and the “Serum Uric Acid, Change … (SD)” value [8] was −5.17 (4.225) mg/dL. For the same substance, the “Serum Uric Acid, Change from Baseline, Median” value [8] was -5.70 mg/dL, the “Serum Uric Acid, Observed, Mean (SD)” value [8] was 3.57 (3.775) mg/dL and the “Serum Uric Acid, Observed, Median” value [8] was 2.70 mg/dL. For the same substance, the “sUA <6 mg/dL, n (%)” value [8] was 2 (66.7%), the “Serum Uric Acid, Change … (SD)” value [9] was −3.70 (4.744) mg/dL and the “Serum Uric Acid, Change from Baseline, Median” value [9] was -1.80 mg/dL. For the same substance, the “Serum Uric Acid, Observed, Mean (SD)” value [9] was 5.03 (4.177) mg/dL, the “Serum Uric Acid, Observed, Median” value [9] was 6.60 mg/dL and the “Serum Uric Acid, Change … (SD)” value [10] was −9.10 (NE) mg/dL. For the same substance, the “Serum Uric Acid, Change from Baseline, Median” value [10] was -9.10 mg/dL, the “Serum Uric Acid, Observed, Mean (SD)” value [10] was 0.30 (NE) mg/dL and the “Serum Uric Acid, Observed, Median” value [10] was 0.30 mg/dL. The “sUA <6 mg/dL, n (%)” value [10] was 1 (100%), the “Serum Uric Acid, Change … (SD)” value [11] was −0.50 (NE) mg/dL and the “Serum Uric Acid, Change from Baseline, Median” value [11] was -0.50 mg/dL. The “Serum Uric Acid, Observed, Mean (SD)” value [11] was 8.90 (NE) mg/dL, the “Serum Uric Acid, Observed, Median” value [11] was 8.90 mg/dL and the “sUA <6 mg/dL, n (%)” value [11] was 0%. For the same substance, the “Serum Uric Acid, Change … (SD)” value [12] was −1.30 (NE) mg/dL, the “Serum Uric Acid, Change from Baseline, Median” value [12] was -1.30 mg/dL and the “Serum Uric Acid, Observed, Mean (SD)” value [12] was 8.10 (NE) mg/dL. The “Serum Uric Acid, Observed, Median” value [12] was 8.10 mg/dL, the “sUA <6 mg/dL, n (%)” value [12] was 0% and the “Serum Uric Acid, Change … (SD)” value [13] was −7.55 (2.158) mg/dL. The “Serum Uric Acid, Change from Baseline, Median” value [13] was -7.50 mg/dL and the “Serum Uric Acid, Observed, Mean (SD)” value [13] was 0.83 (0.798) mg/dL.
